In PubChem BioAssay (NCI):
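Five concentrations, 48 hours, 96-well plates. GI50: concentration for 50% inhibition of growth. TGI: total growth inhibition.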

What was measured:
Assay in all cases: NCI tumour cell line growth inhibition, 48 h
UACC-257 melanoma = tested on: UACC-257 melanoma
UACC-62 melanoma = tested on: UACC-62 melanoma
HOP-62 NSCLC = tested on: HOP-62 NSCLC
SR leukemia = tested on: SR leukemia
OVCAR-5 ovarian = tested on: OVCAR-5 ovarian
IGROV1 ovarian = tested on: IGROV1 ovarian
HCT-15 colon = tested on: HCT-15 colon
KM12 colon = tested on: KM12 colon
HCC-2998 colon = tested on: HCC-2998 colon
NCI-H226 lung = tested on: NCI-H226 lung

SMILES	GI50 (UACC-257 melanoma) [µM]	TGI (UACC-257 melanoma) [µM]	GI50 (UACC-62 melanoma) [µM]	TGI (UACC-62 melanoma) [µM]	GI50 (HOP-62 NSCLC) [µM]	TGI (HOP-62 NSCLC) [µM]	GI50 (SR leukemia) [µM]	TGI (SR leukemia) [µM]	GI50 (OVCAR-5 ovarian) [µM]	TGI (OVCAR-5 ovarian) [µM]	GI50 (IGROV1 ovarian) [µM]	TGI (IGROV1 ovarian) [µM]	GI50 (HCT-15 colon) [µM]	TGI (HCT-15 colon) [µM]	GI50 (KM12 colon) [µM]	TGI (KM12 colon) [µM]	GI50 (HCC-2998 colon) [µM]	TGI (HCC-2998 colon) [µM]	GI50 (NCI-H226 lung) [µM]	TGI (NCI-H226 lung) [µM]
Nc1cc(C(F)F)c(-c2nc(N3[C@@H]4CC[C@H]3COC4)nc(N3[C@@H]4CC[C@H]3COC4)n2)cn1	0.295	4.31	0.212	2.2	0.161	2.36	0.191	21	0.3	43	0.146	1.54	0.345	> 100	0.569	> 100	0.636	> 100	0.244	> 21.9
O=C1OC(c2ccc([N+](=O)[O-])cc2)=N/C1=C\c1ccc(O)cc1		> 100		> 100		> 100		> 100		> 100		> 100		> 100		> 100		> 100		> 100
COc1cc2cc(C(=O)O)[nH]c2cc1OCc1ccccc1	89.4	> 100	> 100	> 100	> 100	> 100	> 100	> 100	> 100	> 100	> 100	> 100	84	> 100	> 100	> 100	> 100	> 100	> 100	> 100
CCOC(=O)c1cc(C(=O)c2cc(OC)cc(OC)c2)n2ncccc12	67.1	> 100	0.523	> 100	10.2	> 100	0.573	> 100	43.5	> 100	7.12	> 100	0.587	> 100			14.7	> 100	> 100	> 100
Cc1ccnc2c1NC(=O)c1cccnc1N2C1CC1	> 100	> 100	> 100	> 100	> 100	> 100	> 100	> 100	> 100	> 100	> 100	> 100	> 100	> 100	> 100	> 100	> 100	> 100	> 100	> 100
O=C(O)C1Cc2nc[nH]c2CN1 (stereo unspecified)		> 100		> 100				> 100		> 100		> 100		> 100		> 100		> 100		> 100
COc1cc(/C=C2\C(=O)N(c3c(Cl)cccc3Cl)c3ccccc32)cc(OC)c1O	2.19	19.6	0.594	13.2	1.23	20.3	0.0847		8.04	25	1.01	15	0.0682	11.2	0.654	2.69	3.3	17.7	7.91	29
CC(C)OCN1COCN=C1NC#N		> 100		> 100		> 100		> 100		> 100		> 100		34.2		> 100		> 100		> 100
N/C(=N\C(=S)N1CCCCC1)N1CCCCC1		> 100		> 100		> 100		> 100		> 100		> 100		> 100		> 100		> 100		> 100
O=C1C=C(Br)C(=O)C(Br)=C1		> 100		> 100		> 100		> 80.6		> 100		> 100		> 100		> 100		> 100		> 100
O=C1C(Nc2ccccn2)=C(I)C(=O)c2ncccc21	1.59	3.49	1.28	2.67	1.12	2.43	0.274	10	1.71	3.25	0.741	2.25	0.226	1.39	1.65	3.42	1.53	2.98	1.43	3.08
COC(=O)C(C(=O)C(=O)Nc1ccccc1OC)c1csc(-n2nc(-c3ccccc3)cc2-c2ccccc2)n1 (stereo unspecified)		> 100		> 100		> 100		> 100		> 100		> 100		> 100		> 100		> 100		> 100
COC(=O)c1c2c(c(C)[n+]([O-])c1C)C(=O)C(NCc1ccc(F)c(Cl)c1)=CC2=O	1.28	3.1	1.38	3.12	2.96	23.1	2.5	> 100	1.66	3.82			1.39	3.58	1.96	9.63	2.28	6.66	2.98	9.32
C=C(C)C1CC[C@]2(C(=O)O)CCC3(C)[C@H](CCC4[C@@]5(C)CC[C@H](OC6OC(CO)C(O)C6OC6OC(C)C(O)C(O)C6O)[C@@](C)(CO)C5CC[C@]43C)C12 (stereo partly specified)				> 100		> 100		> 100		> 100		> 100		> 100		> 100		> 100		> 100
Clc1ccc2c(NCCCN3CCN(c4nc(-n5ccnc5)nc5ccccc45)CC3)ccnc2c1	2	3.81	> 37.7	> 67.1	44.8	> 100	1.9	5.7	> 100	> 100	2.96	23.7	1.61	3.8			> 100	> 100	> 100	> 100
